This is an account of results in US12590062B2, “PD-1/PD-L1 inhibitors” (Gilead Sciences, Inc., priority 2017, dated 2026).

For assay [1], the target named is PD-1/PD-L1 (Homo sapiens, UniProt Q9NZQ7). Kind of assay: PD-1/PD-L1 biochemical protein-protein interaction assay (ALPHA). Format: binding. As to conditions: 0.3 nM His tagged PD-L1, 2.5 nM biotinylated Fc-PD-1, 60 minutes at 25° C., read-out: IC50 PD-L1-PD-1 Alpha IC50-mono PD-L1-fcP-D1. The gist of the method: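 Bead proximity read-out: compound-driven loss of ALPHA signal between anti-His acceptor and streptavidin donor beads (20 μg/mL acceptor). Proteins: 0.3 nM His-PD-L1, 2.5 nM biotin-Fc-PD-1, final. 60 min, 25° C, Hepes pH 7.4 buffer. IC50 via four-parameter dose-response fit.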

The target in assay [2] is T1, PD-L1 (Homo sapiens, UniProt Q9NZQ7).
T1 construct: determine if they can specifically dimerize the extracellular domains of PD-L1
Nature of the assay: PD-L1/PD-L1 dimerization biochemical protein-protein interaction assay (ALPHA). It is filed as binding. As to conditions: compound-induced PD-L1 dimerization, head prints '1 nM' (0.5 nM His-tagged PD-L1 and 0.5 nM FLAG-tagged PD-L1), read-out: AC50 PDL1 Dimer Alpha 1 nM. An outline of the steps:
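After 2 h at 25 °C with compound, His- and FLAG-tagged PD-L1 ECDs (each 0.5 nM final; 25 mM Hepes pH 7.4, 150 mM NaCl) were detected by sequential anti-His acceptor and anti-FLAG donor bead incubations. Dose-response curves fitted to four-parameter equation for AC50.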

The target of assay [3] is T2, PD-1/PD-L1 interaction (Homo sapiens, UniProt Q9NZQ7).
T2 construct: expressed in transfected cells; host or cells: CHO cells (aAPC-PD-L1) co-cultured with Jurkat cells overexpressing PD-1 and an NFAT-luciferase reporter
Nature of the assay: PD-1/PD-L1 NFAT reporter co-culture assay. As to conditions: Jurkat PD-1 NFAT-luciferase cells co-cultured with aAPC-PD-L1 CHO cells, 6 hrs at 37° C.; read-out: EC50 NFAT Luciferase. Format: cell-based. An outline of the steps: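 Compounds are scored by restoration of NFAT-luciferase signal in PD-1-expressing Jurkat cells cultured 6 h at 37 °C on CHO cells presenting anti-CD3 and PD-L1; EC50 values derive from four-parameter curve fitting.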

T2 sequence (Q9NZQ7 19-290): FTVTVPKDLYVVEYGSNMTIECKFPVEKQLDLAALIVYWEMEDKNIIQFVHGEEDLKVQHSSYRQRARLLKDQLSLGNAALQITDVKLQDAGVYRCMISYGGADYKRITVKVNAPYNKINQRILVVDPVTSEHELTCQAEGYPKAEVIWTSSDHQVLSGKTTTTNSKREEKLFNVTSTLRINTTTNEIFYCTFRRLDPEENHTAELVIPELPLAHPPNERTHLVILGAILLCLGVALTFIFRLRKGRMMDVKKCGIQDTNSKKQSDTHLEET
PD-1/PD-L1, sequence (Q9NZQ7 19-238 limits assumed): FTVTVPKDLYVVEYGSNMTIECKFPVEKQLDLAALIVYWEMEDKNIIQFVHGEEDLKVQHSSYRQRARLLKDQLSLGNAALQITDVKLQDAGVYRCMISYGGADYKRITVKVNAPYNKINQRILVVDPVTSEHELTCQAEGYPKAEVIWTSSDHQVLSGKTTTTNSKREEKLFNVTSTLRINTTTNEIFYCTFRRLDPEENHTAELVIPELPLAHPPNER
T1 sequence (Q9NZQ7 19-238 limits assumed): as above
T1 sequence (Q9NZQ7 19-238 limits assumed): as above

In the case of `Cc1c(COc2cc(OCc3cncc(C#N)c3)c(CN3CC[C@@H](C(=O)O)C3)cc2Cl)cccc1-c1cccc(-c2ccc(OCCNCCO)cc2)c1C` [Example 345, (R)-1-(5-chloro-2-((5-cyanopyridin-3-yl)methoxy)-4-((4″-(2-((2-hydroxyethyl)amino)ethoxy)-2,2′-dimethyl-[1,1′:3′,1″-terphenyl]-3-yl)methoxy)benzyl)pyrrolidine-3-carboxylic acid], the IC50 in assay [1] was 0.09 nM. In addition, the concentration at half-maximal activity (AC50) in assay [2] turned out to be 229 nM. Further, in assay [3], the EC50 turned out to be 552 nM.

Regarding `C[C@@](CO)(NCc1cc(Cl)c(O[C@H]2CCc3c(-c4cccc5c4CC[C@@H]5Oc4nc(OCc5cncc(S(C)(=O)=O)c5)c(CN5CC[C@@H](O)C5)cc4Cl)cccc32)nc1OCc1cncc(S(C)(=O)=O)c1)C(=O)O` [Example 688], the IC50 in assay [1] worked out at 0.412 nM. Also, the AC50 in assay [2] was 141 nM. For the same compound, in assay [3], the EC50 was no less than 50000 nM.

As to `COc1nc(O[C@H]2CCc3c(-c4cccc(-c5cnc(CN6CC(C)(CO)C6)c(OC)n5)c4Cl)cccc32)c(Cl)cc1CN1CC[C@H](C(=O)O)C1` [Example 707], the IC50 in assay [1] is 0.064 nM. In addition, the AC50 in assay [2] was 39.3 nM. The EC50 in assay [3] is 31 nM.

On to `Cc1c(COc2cc(OCc3cncc(C#N)c3)c(CN3CC[C@@H](O)C3)cc2Cl)cccc1-c1cccc(-c2ccc(CNCCCCC(=O)O)cc2)c1C` [Example 333, (R)-5-(((3″-((2-chloro-5-((5-cyanopyridin-3-yl)methoxy)-4-((3-hydroxypyrrolidin-1-yl)methyl)phenoxy)methyl)-2′,2″-dimethyl-[1,1′:3′,1″-terphenyl]-4-yl)methyl)amino)pentanoic acid], for which the IC50 in assay [1] worked out at 0.289 nM. Further, the AC50 in assay [2] is 203 nM. In addition, the concentration for a half-maximal effect (EC50) in assay [3] stood at 481 nM.

As for `COc1nc(-c2cccc(-c3cccc(COc4nc(OCc5cncc(C#N)c5)c(CNC[C@@H](O)CC(=O)O)cc4Br)c3Cl)c2Cl)ccc1C1=NCCN1` [Example 558], the IC50 in assay [1] came out at 0.065 nM. Besides, in assay [2], the AC50 amounted to 33.6 nM. The EC50 in assay [3] stood at 51 nM.

For the compound `Cc1c(COc2cc(OCc3cncc(C#N)c3)c(CN[C@](C)(CO)C(=O)O)cc2Cl)cccc1-c1cccc(-c2ccc(OCCNCCO)cc2)c1C` [Example 511], the IC50 in assay [1] worked out at 0.082 nM. The AC50 in assay [2] was found to be 36.9 nM. Also, the EC50 in assay [3] amounted to 197 nM.

On to `COc1nc(O[C@H]2CCc3c(-c4cccc(-c5ccc(C6=NCCN6)c(OC)n5)c4Cl)cccc32)c(Br)cc1CN[C@@](C)(CO)C(=O)O` [Example 789], for which the IC50 in assay [1] amounted to 0.064 nM. Further, the AC50 in assay [2] is 17.9 nM. Also, the EC50 in assay [3] was 58 nM.

As for `COc1nc(-c2cccc(-c3cccc4c3CC[C@@H]4Oc3nc(OC)c(CN4CC5(C(=O)O)CCC4CC5)cc3Cl)c2Cl)ccc1CNC[C@@H]1CCC(=O)N1` [Example 766], in assay [1], the IC50 was found to be 0.064 nM. For the same compound, in assay [2], the AC50 worked out at 19.4 nM. For the same compound, in assay [3], the EC50 turned out to be 21 nM.

With `Cc1c(COc2nc(OCc3cccnc3)c(CNC[C@@H](O)CC(=O)O)cc2Br)cccc1-c1cccc(COc2nc(OCc3cccnc3)c(CNC[C@@H](O)CC(=O)O)cc2Br)c1C` [Example 137, (3S,3′S)-4,4′-((((((2,2′-dimethyl-[1,1′-biphenyl]-3,3′-diyl)bis(methylene))bis(oxy))bis(5-bromo-2-(pyridin-3-ylmethoxy)pyridine-6,3-diyl))bis(methylene))bis(azanediyl))bis(3-hydroxybutanoic acid)], in assay [1], the IC50 worked out at 0.6 nM. Besides, the concentration at half-maximal activity (AC50) in assay [2] came out at 195 nM. For the same compound, the EC50 in assay [3] was found to be 1450 nM.

As to `Cc1c(COc2cc(OCc3cncc(C#N)c3)c(CN[C@H]3CCCC[C@@H]3O)cc2Cl)cccc1-c1cccc(-c2cccc(OCCNCCO)c2)c1C` [Example 367, 5-((4-chloro-2-((((1S,2S)-2-hydroxycyclohexyl)amino)methyl)-5-((3″-(2-((2-hydroxyethyl)amino)ethoxy)-2,2′-dimethyl-[1,1′:3′,1″-terphenyl]-3-yl)methoxy)phenoxy)methyl)nicotinonitrile], the IC50 in assay [1] was 2.53 nM. In assay [2], the AC50 stood at 227 nM. Also, the EC50 in assay [3] was 376 nM.

As to `Cc1c(COc2cc(OCc3cncc(C#N)c3)c(CNC[C@@H](O)CC(=O)O)cc2Cl)cccc1-c1cccc(-c2cnc3c(CNC[C@@H](O)CC(=O)O)cccc3c2)c1C` [Example 452], in assay [1], the IC50 was found to be 0.076 nM. For the same compound, the AC50 in assay [2] came to 144 nM. Besides, in assay [3], the EC50 amounted to 253 nM.

With `Cc1c(COc2cc(OCc3cncc(C#N)c3)c(CNC[C@@H](O)CC(=O)O)cc2Cl)cccc1-c1cccc(-c2nc3c(C)c(CNC[C@@H](O)CC(=O)O)ccc3s2)c1C` [Example 395, (S)-4-(((2-(3′-((4-((((S)-3-carboxy-2-hydroxypropyl)amino)methyl)-2-chloro-5-((5-cyanopyridin-3-yl)methoxy)phenoxy)methyl)-2,2′-dimethyl-[1,1′-biphenyl]-3-yl)-4-methylbenzo[d]thiazol-5-yl)methyl)amino)-3-hydroxybutanoic acid], the IC50 in assay [1] came to 0.217 nM. Moreover, in assay [2], the AC50 was determined as 89.6 nM. In addition, the EC50 in assay [3] was 151 nM.

For the compound `Cc1c(COc2cc(OCc3cncc(C#N)c3)c(CNC[C@@H](O)CC(=O)O)cc2Cl)cc(F)cc1-c1cccc(-c2ccc(OCCN3CC[C@@H](O)C3)cc2)c1C` [Example 446], the IC50 in assay [1] turned out to be 0.453 nM. Also, the AC50 in assay [2] came out at 458 nM. Further, in assay [3], the EC50 was 315 nM.

As to `COc1nc(O[C@H]2CCc3c(-c4cccc(-c5ccc(C6=N[C@@H](C)CN6)c(OC)n5)c4Cl)cccc32)c(Br)cc1CN[C@@](C)(CO)C(=O)O` [Example 781], the IC50 in assay [1] was found to be 0.064 nM. Moreover, the concentration at half-maximal activity (AC50) in assay [2] turned out to be 23.3 nM. Moreover, the EC50 in assay [3] turned out to be 34 nM.

For `COc1cc(-c2cccc(-c3cccc(COc4nc(OC)c(CN5CC6(C5)CN(C(C)=O)C6)cc4Br)c3Cl)c2Cl)ccc1CN1CC2(C1)CN(C(C)=O)C2` [Example 425], the IC50 in assay [1] came to 0.755 nM. The AC50 in assay [2] was determined as 226 nM. Moreover, the EC50 in assay [3] was 544 nM.

Regarding `Cc1c(COc2cc(OCc3cncc(C#N)c3)c(CN[C@@](C)(CO)C(=O)O)cc2Cl)cccc1-c1cccc(-c2ccc3c(c2)CCC3N(C)CCO)c1C` (stereo partly drawn) [Example 375, (2S)-2-((5-chloro-2-((5-cyanopyridin-3-yl)methoxy)-4-((3′-(1-((2-hydroxyethyl)(methyl)amino)-2,3-dihydro-1H-inden-5-yl)-2,2′-dimethyl-[1,1′-biphenyl]-3-yl)methoxy)benzyl)amino)-3-hydroxy-2-methylpropanoic acid], the IC50 in assay [1] is 0.21 nM. Besides, the AC50 in assay [2] turned out to be 173 nM. Moreover, the EC50 in assay [3] came out at 389 nM.

In the case of `CS(=O)(=O)c1cncc(COc2nc(O[C@H]3CCc4c(-c5cccc(-c6ccc(OCCN7CC[C@@H](O)C7)cc6)c5Cl)cccc43)c(Cl)cc2CNC[C@@H](O)CC(=O)O)c1` [Example 666], the IC50 in assay [1] worked out at 0.076 nM. Moreover, the AC50 in assay [2] stood at 22.9 nM. Besides, in assay [3], the EC50 is 418 nM.

On to `Cc1c(COc2cc(OCc3cncc(C#N)c3)c(CNC[C@@H](O)CC(=O)O)cc2Cl)cccc1-c1cccc(-c2nc3ccc(CNC[C@@H](O)CC(=O)O)cc3o2)c1C` [Example 592], for which the IC50 in assay [1] was 0.095 nM. Moreover, the AC50 in assay [2] was determined as 107 nM. Further, the EC50 in assay [3] came to 172 nM.

With `COc1nc(-c2cccc(-c3cccc4c3CC[C@@H]4Oc3nc(OC)c(CNC[C@@H]4CCC(=O)N4)cc3Cl)c2Cl)ccc1CN[C@@H]1CCC[C@@H]1O` [Example 644], in assay [1], the IC50 was found to be 1.95 nM. The AC50 in assay [2] was found to be 136 nM. Besides, in assay [3], the EC50 turned out to be 82 nM.

A word on the IC50: it is the concentration that gives 50% inhibition. As usually defined, the AC50 is the concentration at which the activity in the assay is half-maximal. One may read the EC50 as the concentration at which the effect is half-maximal.
